Assay results reported in article PMC5000080, “Mechanism of Histone H3K4me3 Recognition by the Plant Homeodomain of Inhibitor of Growth 3” (The Journal of Biological Chemistry, 2016).
Where “and” joins values, the source holds several entries; their conditions need not be identical. Equal entries are not always repeated. Entries after “also recorded” stand apart in the source; their conditions may differ.

Tests used:
[1] = molecular target: T1, ING3 PHD finger (Homo sapiens, UniProt Q9NXR8); assay: Tryptophan fluorescence titration of ING3 PHD finger with histone peptides; type: binding; settings: 25 °C, 100 mM NaPO4 pH 7.5, 150 mM NaCl, 1 mM DTT, 10 μM ING3 PHD; average of three titrations; read-out: Trp fluorescence KD
T1 construct: The ING3 PHD finger region (residues 360–409) was amplified using PCR; GST (N, cleaved yes); made in house; host or cells: Escherichia coli Rosetta 2(DE3)pLysS
Method: Tryptophan fluorescence spectra of samples in tryptophan fluorescence buffer (100 mM NaPO4, pH 7.5, 150 mM NaCl, and 1 mM DTT) were collected at 25 °C using a Cary Eclipse fluorescence spectrometer (Varian). The samples contained 10 μM ING3 PHD finger protein and progressively increasing concentrations of histone H3 and H4 peptides. The 12- and 14-mer unlabeled histone tail peptides with an amidated C terminus and specific methylation modifications (H3K4me3, H3K4me2, H3K4me1, H3 unmodified, and H4 unmodified) were synthesized by the Peptide Core Facility at the University of Colorado at Denver. After excitation at 295 nm, emission spectra were recorded between 305 and 405 nm with 0.5-nm increments and at a 1-s integration time, averaging over three scans. Each titration experiment was repeated three times, and the average KD values were calculated using quadratic Equation 1, [drawing 1] where Fi is the fluorescence change; Fs is the fluorescence change at saturation of XT (the total protein concentration); and YT is the peptide concentration.

[2] = molecular target: T2, wild-type ING3 PHD finger (Homo sapiens, UniProt Q9NXR8); assay: ITC of wild-type ING3 PHD finger with histone peptides; type: binding; settings: for Kd / ITC KD: wild-type ING3 PHD, 5 °C, 20 mM NaH2PO4 pH 7.0, 150 mM NaCl, triplicate, non-binding in duplicate
T2 construct: The ING3 PHD finger region (residues 360–409) was amplified using PCR; GST (N, cleaved yes); made in house; host or cells: Escherichia coli Rosetta 2(DE3)pLysS
Method: (§1) ITC measurements were recorded at 5 °C using a MicroCal iTC200 (GE Healthcare) as described previously ([55]). The wild-type and mutant ING3PHD proteins and histone peptide samples were prepared in a 20 mM NaH2PO4, pH 7.0, and 150 mM NaCl ITC buffer by dialysis for 24–48 h. Titration experiments were set up for optimal heat of binding reactions by using 100–200 μM ING3PHD in the sample cell, and between 1 and 5 mM histone peptide in the injection syringe. Control experiments were performed under identical conditions to determine the heat of dilution of the titrant peptides into the experimental buffer. This was subtracted from the experimental data as part of data analysis. Data were analyzed using the software ORIGIN 7.0 (OriginLab Corp.).

[3] = molecular target: T3, 15N-labeled ING3 PHD finger (Homo sapiens, UniProt Q9NXR8); assay: 1H-15N HSQC NMR chemical shift perturbation; type: binding; settings: 0.5 mM ING3 PHD, 20 mM Tris-HCl pH 6.8, 150 mM NaCl, 10 mM DTT, 25 °C; protein:peptide up to 1:2.61
T3 construct: The ING3 PHD finger region (residues 360–409) was amplified using PCR; GST (N, cleaved yes); made in house; host or cells: Escherichia coli Rosetta 2(DE3)pLysS
Method: Chemical shift perturbation experiments were conducted using 0.5 mM uniformly ^15N-labeled ING3 PHD finger in buffer containing 20 mM Tris-HCl, pH 6.8, 150 mM NaCl, 10 mM DTT, and 10% D2O. Titration mixtures of the ING3PHD protein and each of the modified histone peptides were prepared at concentration ratios of 1:0, 1:0.13, 1:0.26, 1:0.52, 1:1.3, and 1:2.61 in a volume of 35 μl. These mixtures were then transferred into 1.7-mm NMR tubes (Bruker).
Two-dimensional ^15N HSQC (heteronuclear single quantum coherence) experiments for all samples were run at 25 °C on a 600 MHz Bruker AVANCE III spectrometer equipped with a z-gradient 1.7-mm TCI probe at the National Magnetic Resonance Facility at Madison (NMRFAM) using the NMRBot software ([57]). The NMR data were collected with 1024 × 128 complex data points along the ^1H and ^15N dimensions, with acquisition times of 104 and 81 ms, respectively, using eight scans per free induction decay. Normalized chemical shift changes were calculated using Equation 2, [drawing 2] where ΔδH and ΔδN are the proton and nitrogen change in chemical shift in ppm, respectively.

[4] = molecular target: T4, ING3 PHD D26H (Homo sapiens, UniProt Q9NXR8, D380H); assay: ITC of ING3 PHD mutant with H3K4me3 peptide; type: binding; settings: 5 °C, pH 7.0, triplicate
T4 construct: The ING3 PHD finger region (residues 360–409) was amplified using PCR; GST (N, cleaved yes); made in house; host or cells: Escherichia coli Rosetta 2(DE3)pLysS
Excerpt: (§2) The ING3 PHD finger region (residues 360–409) was amplified using PCR and cloned into the pDEST15 vector encoding an N-terminal glutathione transferase (GST) tag using the Gateway cloning technology (Invitrogen) as described previously ([55]). ING3PHD proteins with single mutations at W31A, W47A, S15A, P43A, Y8A, and D26H were generated using the QuikChange® mutagenesis procedure (Stratagene) as described previously ([56]). The DNA sequence for wild-type and mutant proteins was verified at the University of Vermont DNA facility, and the plasmids were transformed into in Escherichia coli Rosetta^TM 2(DE3)pLysS competent cells (Novagen) for protein expression.
as §1, with “Corp.). All experiments where binding occurred were performed in triplicate, whereas non-binding experiments were performed in duplicate.” for “Corp.).”

[5] = molecular target: T5, ING3 PHD P43A (Homo sapiens, UniProt Q9NXR8, P397A); assay: ITC of ING3 PHD mutant with H3K4me3 peptide; type: binding
T5 construct: The ING3 PHD finger region (residues 360–409) was amplified using PCR; GST (N, cleaved yes); made in house; host or cells: Escherichia coli Rosetta 2(DE3)pLysS
Excerpt: as §2
as §1, with “Corp.). All experiments where binding occurred were performed in triplicate, whereas non-binding experiments were performed in duplicate.” for “Corp.).”

[6] = molecular target: T6, ING3 PHD S15A (Homo sapiens, UniProt Q9NXR8, S369A); assay: ITC of ING3 PHD mutant with H3K4me3 peptide; type: binding
T6 construct: The ING3 PHD finger region (residues 360–409) was amplified using PCR; GST (N, cleaved yes); made in house; host or cells: Escherichia coli Rosetta 2(DE3)pLysS
Excerpt: as §2
as §1, with “Corp.). All experiments where binding occurred were performed in triplicate, whereas non-binding experiments were performed in duplicate.” for “Corp.).”

[7] = molecular target: T7, ING3 PHD W47A (Homo sapiens, UniProt Q9NXR8, W401A); assay: ITC of ING3 PHD mutant with H3K4me3 peptide; type: binding; settings: 5 °C, pH 7.0, triplicate
T7 construct: The ING3 PHD finger region (residues 360–409) was amplified using PCR; GST (N, cleaved yes); made in house; host or cells: Escherichia coli Rosetta 2(DE3)pLysS
Excerpt: as §2
as §1, with “Corp.). All experiments where binding occurred were performed in triplicate, whereas non-binding experiments were performed in duplicate.” for “Corp.).”

[8] = molecular target: T8, ING3 PHD Y8A (Homo sapiens, UniProt Q9NXR8, Y362A); assay: ITC of ING3 PHD mutant with H3K4me3 peptide; type: binding; settings: 5 °C, pH 7.0, triplicate
T8 construct: The ING3 PHD finger region (residues 360–409) was amplified using PCR; GST (N, cleaved yes); made in house; host or cells: Escherichia coli Rosetta 2(DE3)pLysS
Excerpt: as §2
as §1, with “Corp.). All experiments where binding occurred were performed in triplicate, whereas non-binding experiments were performed in duplicate.” for “Corp.).”

[9] = molecular target: T9, ING3 PHD W31A (Homo sapiens, UniProt Q9NXR8, W385A); assay: ITC of ING3 PHD mutant with H3K4me3 peptide; settings: 5 °C, pH 7.0, non-binding in duplicate
T9 construct: The ING3 PHD finger region (residues 360–409) was amplified using PCR; GST (N, cleaved yes); made in house; host or cells: Escherichia coli Rosetta 2(DE3)pLysS
Excerpt: as §2
as §1, with “This was subtracted from the experimental data as part of data analysis.” left out, “Corp.). […]” for “Corp.).”

T6 sequence (Q9NXR8 360-409 S369A): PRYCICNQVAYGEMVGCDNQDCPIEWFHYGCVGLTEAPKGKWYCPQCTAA
T3 sequence (Q9NXR8 360-409): as the sequence (Q9NXR8 360-409 S369A) above, with A10S counted along it
T1 sequence (Q9NXR8 360-409): as the sequence (Q9NXR8 360-409 S369A) above, with A10S counted along it
T2 sequence (Q9NXR8 360-409): as the sequence (Q9NXR8 360-409 S369A) above, with A10S counted along it
T5 sequence (Q9NXR8 360-409 P397A): as the sequence (Q9NXR8 360-409 S369A) above, with A10S, P38A counted along it
T9 sequence (Q9NXR8 360-409 W385A): as the sequence (Q9NXR8 360-409 S369A) above, with A10S, W26A counted along it
T7 sequence (Q9NXR8 360-409 W401A): as the sequence (Q9NXR8 360-409 S369A) above, with A10S, W42A counted along it
T4 sequence (Q9NXR8 360-409 D380H): as the sequence (Q9NXR8 360-409 S369A) above, with A10S, D21H counted along it
T8 sequence (Q9NXR8 360-409 Y362A): as the sequence (Q9NXR8 360-409 S369A) above, with Y3A, A10S counted along it

Kd [1]	Kd [2]	Compound	chemical shift perturbations in 1H-15N HSQC upon addition of peptide [3]	other results
132 ± 13.5 µM	181 ± 19.2 µM	C[C@H](N)C(=O)N[C@@H](CCCNC(=N)N)C(=O)N[C@H](C(=O)N[C@@H](CCCCN)C(=O)N[C@@H](CCC(N)=O)C(=O)N[C@H](C(=O)N[C@@H](C)C(=O)N[C@@H](CCCNC(=N)N)C(=O)N[C@@H](CCCCN)C(=O)N[C@@H](CO)C(=O)N[C@H](C(=O)NCC(N)=O)[C@@H](C)O)[C@@H](C)O)[C@@H](C)O [H3 unmodified]	Chemical shift perturbations were induced	–
21.4 ± 3.51 µM	23.2 ± 0.8 µM	CNCCCC[C@H](NC(=O)[C@@H](NC(=O)[C@H](CCCNC(=N)N)NC(=O)[C@H](C)N)[C@@H](C)O)C(=O)N[C@@H](CCC(N)=O)C(=O)N[C@H](C(=O)N[C@@H](C)C(=O)N[C@@H](CCCNC(=N)N)C(=O)N[C@@H](CCCCN)C(=O)N[C@@H](CO)C(=O)N[C@H](C(=O)NCC(N)=O)[C@@H](C)O)[C@@H](C)O [H3K4me1]	Chemical shift perturbations were induced	–
4.05 ± 0.53 µM	2.99 ± 0.33 µM	C[C@H](N)C(=O)N[C@@H](CCCNC(=N)N)C(=O)N[C@H](C(=O)N[C@@H](CCCCN(C)C)C(=O)N[C@@H](CCC(N)=O)C(=O)N[C@H](C(=O)N[C@@H](C)C(=O)N[C@@H](CCCNC(=N)N)C(=O)N[C@@H](CCCCN)C(=O)N[C@@H](CO)C(=O)N[C@H](C(=O)NCC(N)=O)[C@@H](C)O)[C@@H](C)O)[C@@H](C)O [H3K4me2]	Chemical shift perturbations were induced	–
0.63 ± 0.11 µM	0.93 ± 0.04 µM	C[C@H](N)C(=O)N[C@@H](CCCNC(=N)N)C(=O)N[C@H](C(=O)N[C@@H](CCCC[N+](C)(C)C)C(=O)N[C@@H](CCC(N)=O)C(=O)N[C@H](C(=O)N[C@@H](C)C(=O)N[C@@H](CCCNC(=N)N)C(=O)N[C@@H](CCCCN)C(=O)N[C@@H](CO)C(=O)N[C@H](C(=O)NCC(N)=O)[C@@H](C)O)[C@@H](C)O)[C@@H](C)O [H3K4me3]	Chemical shift perturbations were induced	association stronger than with the unmodified histone H3 ([2]; abstract, method not specified (Trp fluorescence and ITC)): about 200 fold; Kd [4]: 1.93 ± 0.26 µM; Kd ([5]; 5 °C, pH 7.0, triplicate): 2.45 ± 0.27 µM; drop in binding affinity versus WT ([5]; ITC): 2–3 fold; Kd ([6]; 5 °C, pH 7.0, triplicate): 1.5 ± 0.01 µM; drop in binding affinity versus WT ([6]; ITC): 2–3 fold and 2 fold; Kd [7]: 48.31 ± 0.23 µM; Kd [8]: 46 ± 2.99 µM; ITC KD [9]: no recognition of this ligand; also recorded: No binding
–	–	GKGGKGLGKGGAKR [H4 unmodified, unmodified histone H4 tail peptide residues 4–17, amidated C terminus]	No significant resonance shifts	ITC KD [2]: No binding was observed; ITC KD ([2]; listed as H4 unmodified(4–17)): No binding
